# Biological target: prohibitin 2 (PHB2) (Homo sapiens, UniProt Q99623)
# Test: diazirine photoaffinity labelling (UV […] nm) with pull-down/western blot; DARTS
# Type: cell-based
# Design: endogenous PHB2 in ES-2 cells
# Sequence of prohibitin 2 (PHB2) (Q99623 2-299): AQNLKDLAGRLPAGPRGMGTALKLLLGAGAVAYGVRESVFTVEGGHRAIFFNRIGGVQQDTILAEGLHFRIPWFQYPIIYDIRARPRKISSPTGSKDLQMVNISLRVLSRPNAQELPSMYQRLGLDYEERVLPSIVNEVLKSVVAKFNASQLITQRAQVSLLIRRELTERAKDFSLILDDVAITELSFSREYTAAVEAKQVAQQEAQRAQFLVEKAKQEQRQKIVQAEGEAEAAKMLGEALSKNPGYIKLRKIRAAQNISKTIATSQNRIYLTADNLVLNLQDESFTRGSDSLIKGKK
smiles,measurement,value
C#CCCC1(CC(=O)N2CCC(n3cc(-c4cn5cc(-c6ccccc6)nc5c(C5=CCOCC5)n4)cn3)CC2)N=N1 [YL-939-1],diazirine photoaffinity labelling (UV 365 nm) with pull-down/western blot; DARTS,revealed that only PHB2 protein could be pulled down by the probe (Fig. 4D)
